The values below come from US20090136448A1, “Antiviral 2-Carboxy-Thiophene Compounds” (priority 2005, published 2009).

SMILES strings stand for the structures.

For experiment [1], the system named is HCV replication, genotype 1b (Huh-7 HCV replicon cell, sub-line 5-15). Description: Replicon ELISA cell based assay, genotype 1b. Particulars: Hepatitis C virus, Huh-7 HCV replicon cells, genotype 1b (sub-line 5-15), 72 hours, mean, assayed at least twice. As to the method: (§1) Replicon ELISA Cell Based Assay
(§2) 100 μL of medium containing 10% FCS were added to each well of clear, flat-bottomed 96 well microplates, excepting wells in the top row. Test compound was diluted in assay medium to twice the final required starting concentration from a 40 mM stock solution in DMSO. 200 μL of the starting dilution were introduced into two wells each in the top row and doubling dilutions made down the plate by the sequential transfer of 100 μL aliquots with thorough mixing in the wells; the final 100 μL were discarded. The two bottom rows were not used for compound dilutions. Huh-7 HCV replicon cell monolayers nearing confluency were stripped from growth flasks with versene-trypsin solution and the cells were resuspended in assay medium at either 2×10^5 cells/mL (sub-line 5-15; genotype 1b; Lohmann, V., Korner, F., Koch, J-O., Herian, U., Thielmann, L. and Bartenschlager, R., Science, 1999, 285, 110-113) or at 3×10^5 cells/mL (genotype 1a; Gu, B., Gates, A. T., Isken, O., Behrens, S. E. and Sarisky, R. T., J. Virol., 2003, 77, 5352-5359). 100 μL of cell suspension were added to all wells and the plates incubated at 37° C. for 72 hours in a 5% CO2 atmosphere.
(§3) Following incubation, the assay medium was aspirated from the plates. The cell sheets were washed by gentle immersion in phosphate buffered saline (PBS), which was then aspirated off, and fixed with acetone:methanol (1:1) for 5 minutes. Following a further wash with PBS, 100 μL of ELISA diluent (PBS+0.05% v/v Tween 20+2% w/v skimmed milk powder) were added to all wells and the plates incubated at 37° C. for 30 minutes on an orbital platform. The diluent was removed and each well then received 50 μL of a 1/200 dilution of anti-HCV specific, murine, monoclonal antibody (either Virostat #1872 or #1877), except for wells in one of the compound-free control rows which received diluent alone to act as negative controls. The plates were incubated at 37° C. for 2 hours and washed 3 times with PBS/0.05% Tween 20, then 50 μL of horseradish peroxidase conjugated, anti-mouse, rabbit polyclonal serum (Dako #P0260), diluted 1/1000, were added to all wells. The plates were incubated for a further hour, the antibody removed and the cell sheets washed 5 times with PBS/Tween and blotted dry. The assay was developed by the addition of 50 μL of ortho-phenylenediamine/peroxidase substrate in urea/citrate buffer (SigmaFast, Sigma #P-9187) to each well, and colour allowed to develop for up to 15 minutes. The reaction was stopped by the addition of 25 μL per well of 2 M sulphuric acid and the plates were read at 490 nm on a Fluostar Optima spectrophotometer.
(§4) The substrate solution was removed and the plates were washed in tap water, blotted dry and the cells stained with 5% carbol fuchsin in water for 30 minutes. The stain was discarded and the cell sheets washed, dried and examined microscopically to assess cytotoxicity.
(§5) The absorbance values from all compound-free wells that had received both primary and secondary antibodies were averaged to obtain a positive control value. The mean absorbance value from the compound-free wells that had not received the primary antibody was used to provide the negative (background) control value. The readings from the duplicate wells at each compound concentration were averaged and, after the subtraction of the mean background from all values, were expressed as a percentage of the positive control signal. The quantifiable and specific reduction of expressed protein detected by the ELISA in the presence of a drug can be used as a measure of replicon inhibition. GraFit software (Erithacus Software Ltd.) was used to plot the curve of percentage inhibition against compound concentration and derive the 50% inhibitory concentration (IC50) for the compound.

Experiment [2] relates to HCV replication, genotype 1a (Huh-7 HCV replicon cell). Kind of experiment: Replicon ELISA cell based assay, genotype 1a. Particulars: Hepatitis C virus, Huh-7 HCV replicon cells, 72 hours, mean, assayed at least twice. How it is done:
as §1, §2, §3, §4, §5
Background: A replicon is a self-replicating genome or part of one, used to study replication in cells.

Usually IC50 stands for the concentration at which inhibition is half-maximal. A higher IC50 goes with a need for much substance. Consider `CC(C)N(c1cc(-c2ccc(-c3cn4ccsc4n3)nc2)sc1C(=O)O)C(=O)[C@H]1CC[C@H](C)CC1` [Example 32, 5-(6-Imidazo[2,1-b][1,3]thiazol-6-yl-3-pyridinyl)-3-[[(trans-4-methylcyclohexyl)carbonyl](1-methylethyl)amino]-2-thiophenecarboxylic acid], for which the values for the IC50 in experiment [1] and in experiment [2] were 50 to 100 nM and 100 to 500 nM, respectively.

Consider `CC(C)N(c1cc(-c2ccc(-c3cc4nccc(N)n4n3)c(Cl)c2)sc1C(=O)O)C(=O)[C@H]1CC[C@H](C)CC1` [Example 33, 5-[4-(7-Aminopyrazolo[1,5-a]pyrimidin-2-yl)-3-chlorophenyl]-3-[[(trans-4-methylcyclohexyl)carbonyl](1-methylethyl)amino]-2-thiophenecarboxylic acid], for which the IC50 in experiment [1] and in experiment [2] was less than 5 nM throughout.

Consider `CC(C)N(c1cc(-c2ccc(-c3cc4ncccn4n3)nc2)sc1C(=O)O)C(=O)[C@H]1CC[C@H](C)CC1` [Example 34, 3-[[(trans-4-Methylcyclohexyl)carbonyl](1-methylethyl)amino]-5-(6-pyrazolo[1,5-a]pyrimidin-2-yl-3-pyridinyl)-2-thiophenecarboxylic acid], for which the half-inhibitory concentration (IC50) in experiment [1] is 50 to 100 nM; in experiment [2], 10 to 50 nM.

In the case of `C[C@H]1CC[C@H](C(=O)N(CC2CC2)c2cc(-c3ccc(-c4cc5ncccn5n4)cc3)sc2C(=O)O)CC1` [Example 35, 3-{(Cyclopropylmethyl)[(trans-4-methylcyclohexyl)carbonyl]amino}-5-(4-pyrazolo[1,5-a]pyrimidin-2-ylphenyl)-2-thiophenecarboxylic acid], the values for the IC50 in experiment [1] and in experiment [2] were 5 to 10 nM and 10 to 50 nM, respectively.

`CC(C)N(c1cc(-c2ccc(-c3cc4ncccn4n3)s2)sc1C(=O)O)C(=O)[C@H]1CC[C@H](C)CC1` [Example 36, 4-[[(trans-4-Methylcyclohexyl)carbonyl](1-methylethyl)amino]-5′-pyrazolo[1,5-a]pyrimidin-2-yl-2,2′-bithionhene-5-carboxylic acid]: the IC50 in experiment [1] and in experiment [2] was 10 to 50 nM throughout.

Regarding `CC(C)N(C(=O)[C@H]1CC[C@H](C)C[C@H]1O)c1cc(-c2ccc(-c3cc4ncccn4n3)cc2)sc1C(=O)O` [Example 39, 3-[{[(1S,2R,4S)-2-Hydroxy-4-methylcyclohexyl]carbonyl}(1-methylethyl)amino]-5-(4-pyrazolo[1,5-a]pyrimidin-2-ylphenyl)-2-thiophenecarboxylic acid], the IC50 in experiment [1] lay in the range of 5 to 10 nM; in experiment [2] it was 10 to 50 nM.

For `CCN(c1cc(-c2ccc(-c3cc4ncccn4n3)cc2)sc1C(=O)O)C(=O)[C@H]1CC[C@H](C)CC1` [Example 40, Ammonium 3-{ethyl[(trans-4-methylcyclohexyl)carbonyl]amino}-5-(4-pyrazolo[1,5-a]pyrimidin-2-ylphenyl)-2-thiophenecarboxylate], the values for the IC50 in experiment [1] and in experiment [2] were 5 to 10 nM and 100 to 500 nM, respectively.

Consider `CC(C)N(c1cc(-c2ccc(-c3ccc4[nH]ccc4c3)cc2)sc1C(=O)O)C(=O)[C@H]1CC[C@H](C)CC1` [Example 41, 5-[4-(1H-Indol-5-yl)phenyl]-3-[[(trans-4-methylcyclohexyl)carbonyl](1-methylethyl)amino]-2-thiophenecarboxylic acid], for which the IC50 was in the range of 50 to 100 nM in experiment [1] and 100 to 500 nM in experiment [2].

With `CC(C)N(c1cc(-c2ccc(-c3ccc4cc[nH]c4c3)cc2)sc1C(=O)O)C(=O)[C@H]1CC[C@H](C)CC1` [Example 42, 5-[4-(1H-Indol-6-yl)phenyl]-3-[[(trans-4-methylcyclohexyl)carbonyl](1-methylethyl)amino]-2-thiophenecarboxylic acid], the figures for the IC50 in experiment [1] and in experiment [2] were 10 to 50 nM and 100 to 500 nM, respectively.

Turning to `CC(C)N(c1cc(-c2ccc(-c3cc4ncccc4o3)s2)sc1C(=O)O)C(=O)[C@H]1CC[C@H](C)CC1` [Example 43, 5′-Furo[3,2-b]pyridin-2-yl-4-[[(trans-4-methylcyclohexyl)carbonyl](1-methylethyl)amino]-2,2′-bithiophene-5-carboxylic acid], the IC50 in experiment [1] was 50 to 100 nM; in experiment [2], 500 to 1000 nM.

As for `CC(C)N(c1cc(-c2ccc(-c3nc4ncccc4o3)nc2)sc1C(=O)O)C(=O)[C@H]1CC[C@H](C)CC1` [Example 46, 3-[[(trans-4-Methylcyclohexyl)carbonyl](1-methylethyl)amino]-5-(6-[1,3]oxazolo[4,5-b]pyridin-2-yl-3-pyridinyl)-2-thiophenecarboxylic acid], the IC50 in experiment [1] and in experiment [2] was 100 to 500 nM in each case.
